What all share (assay): NCI anticancer screen, dose series, 48 h
The subject of assay [1] is A549.
Assay [2] has as its system CAKI-1.
The test system of assay [3] is CCRF-CEM.
The test system of assay [4] is DU-145.
Assay [5] concerns HOP-62.
Assay [6] deals with K562.
Assay [7] relates to LOX IMVI.
For assay [8], the system named is MCF7.
Assay [9] concerns MDA-MB-231.
Assay [10] deals with RPMI-8226.
The subject of assay [11] is SF-268.
Assay [12] deals with SK-MEL-28.
Assay [13] has as its system SR.
For assay [14], the system named is SW-620.
Assay [15] deals with UACC-62.
Assay [16] relates to ACHN.
The subject of assay [17] is SF-539.
Assay [18] relates to SK-MEL-2.
Assay [19] relates to UO-31.

The values below come from ChEMBL document CHEMBL1201862, “PubChem BioAssay data set” (2004).

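All cell lines were grown in 96-well plates and treated with compound for 48 hours. At the GI50, growth is halved.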 Active and inactive are the calls of the source. No stated cut-off is given here; in the data, active = GI50 up to about 1.1 µM and inactive = higher.

In the case of `COc1ccc(C2=C(OC(C)=O)c3cccn3-c3ccc(Cl)cc3S2)cc1`, the GI50 in [1] was 5.51 µM (inactive); in assay [2] it was 7.19 µM (inactive); in [3] it was 3.43 µM (inactive); in assay [4] it was 9.66 µM (inactive); in [5], 3.97 µM (inactive); in assay [6] it was 2.4 µM (inactive). Also, the GI50 was 5.37 µM (inactive) in assay [7]; 3.35 µM (inactive) in assay [8]; 3.72 µM (inactive) in assay [9]; 2.37 µM (inactive) in assay [10]; 7.55 µM (inactive) in [11]; 4.75 µM (inactive) in assay [12]. The GI50 was 2.33 µM (inactive) in [13], 4.06 µM (inactive) in assay [14] and 4.48 µM (inactive) in [15].

Turning to `c1ccc2c(-c3cnc(-c4c[nH]c5ccccc45)cn3)c[nH]c2c1`, the GI50 in assay [1] is > 100 µM (inactive); in [16] it was 65.5 µM (inactive); in assay [2] it was 74.8 µM (inactive); in assay [4] it was > 100 µM (inactive); in [5], 37.8 µM (inactive); in assay [6], 18.8 µM (inactive). The GI50 is 29.3 µM (inactive) in assay [7]; 6.61 µM (inactive) in assay [8]; 91 µM (inactive) in [9]; 45.3 µM (inactive) in assay [10]; 50.6 µM (inactive) in assay [11]; 23.6 µM (inactive) in assay [17]. Moreover, the GI50 in assay [12] is 35.6 µM (inactive); in assay [18] it was 70.3 µM (inactive); in [13], 30 µM (inactive); in assay [14] it was 18.9 µM (inactive); in assay [15] it was 32.8 µM (inactive); in assay [19], 39.5 µM (inactive).

Turning to `N#Cc1nc(-c2cnccn2)oc1N`, the GI50 in assay [1], in [16], in [2], in assay [3], in [4] and in assay [5] was > 100 µM (inactive) each time. The GI50 in assay [6] was > 100 µM (inactive); in [7], > 100 µM (inactive); in assay [8] it was > 100 µM (inactive); in assay [9] it was > 100 µM (inactive); in assay [10], 49.7 µM (inactive); in [11] it was > 100 µM (inactive). Further, the GI50 is > 100 µM (inactive) in assay [12]; > 100 µM (inactive) in assay [18]; > 100 µM (inactive) in assay [13]; > 100 µM (inactive) in assay [14]; > 100 µM (inactive) in [15]; 62.5 µM (inactive) in [19].

With `CCOCCOC(=O)C1CCC(=O)N1CN(C(C)=O)c1cc(OC)ccc1OC` (configuration not stated), the GI50 in [1], in assay [16], in assay [2], in [4], in assay [5] and in assay [6] was > 100 µM (inactive) each time. Moreover, the GI50 in assay [7], in assay [8], in assay [9], in [10], in assay [11] and in assay [17] was > 100 µM (inactive) throughout. For the same molecule, the GI50 was > 100 µM (inactive) in assay [12]; > 100 µM (inactive) in [18]; 1 µM (active) in [13]; > 100 µM (inactive) in assay [14]; > 100 µM (inactive) in assay [15]; > 100 µM (inactive) in assay [19].

Consider `O=C1CS(=O)(=O)C(c2cccc(Oc3ccccc3)c2)N1c1ccc(Cl)cc1` (configuration not stated), for which the GI50 is 30.8 µM (inactive) in assay [1]; 19 µM (inactive) in assay [16]; 15.6 µM (inactive) in assay [2]; 25.6 µM (inactive) in [3]; 67.3 µM (inactive) in assay [4]; 46.7 µM (inactive) in [5]. Moreover, the GI50 is 14.5 µM (inactive) in assay [6]; 14.4 µM (inactive) in assay [7]; 13.8 µM (inactive) in assay [8]; 31.4 µM (inactive) in assay [9]; 25.1 µM (inactive) in assay [11]; 19.5 µM (inactive) in assay [17]. The GI50 in assay [12] is 32.4 µM (inactive); in assay [18] it was 15.2 µM (inactive); in assay [13], 10.6 µM (inactive); in assay [14], 30 µM (inactive); in assay [15], 8.71 µM (inactive); in assay [19] it was 28.6 µM (inactive).

Regarding `O=C1C(/C=C/c2ccc(Cl)cc2)=NNC2N1N=C1NC(=O)C3(NN12)c1ccccc1-c1ccccc13` (configuration not stated), the GI50 is > 100 µM (inactive) in [1]; > 100 µM (inactive) in [16]; > 100 µM (inactive) in [2]; 65.6 µM (inactive) in assay [3]; > 100 µM (inactive) in assay [4]; > 100 µM (inactive) in assay [5]. Also, the GI50 in [6] is 35.4 µM (inactive); in [7], > 100 µM (inactive); in assay [8] it was 26.5 µM (inactive); in [9], > 100 µM (inactive); in assay [11], > 100 µM (inactive); in [17] it was > 100 µM (inactive). Also, the GI50 in assay [12] is > 100 µM (inactive); in assay [18], > 100 µM (inactive); in assay [13], < 0.01 µM (active); in assay [14], > 100 µM (inactive); in assay [15], > 100 µM (inactive); in [19], 94 µM (inactive).

On to `Cn1nc(/C=C\C(=O)N2CC(CCl)c3c2cc(N)c2ccccc32)cc1/C=C/C(=O)N1CC(CCl)c2c1cc(N)c1ccccc21` (configuration not stated), for which the GI50 in assay [1], in assay [16], in assay [2], in [3], in assay [4] and in assay [5] was < 0.01 µM (active) throughout. Also, the GI50 in assay [6], in assay [7], in assay [8], in [9], in assay [11] and in [17] was < 0.01 µM (active) throughout. Also, the GI50 in assay [12], in assay [18], in [13], in assay [14], in assay [15] and in [19] was < 0.01 µM (active) each time.

Take `CC(C)n1c(=O)c2nn3c(=O)n(C(C)C)c(=O)c3nn2c1=O`: the GI50 in [1], in [16], in [2], in [3], in assay [4] and in assay [5] was > 100 µM (inactive) each time. Also, the GI50 in [7], in [8], in assay [9], in [11], in assay [17] and in assay [12] was > 100 µM (inactive) throughout. The GI50 in assay [18], in [13], in [14] and in assay [15] was > 100 µM (inactive) each time.

Consider `CC(C)CC(NC=O)C(=O)NC(Cc1ccccc1)NC(=O)CNC(=O)C(C)NC(=O)OC(C)(C)C` (configuration not stated), for which the GI50 in assay [1], in assay [16], in assay [2], in assay [4], in [5] and in assay [6] was > 100 µM (inactive) throughout. Moreover, the GI50 in [7], in assay [8], in assay [9], in assay [10], in [11] and in assay [17] was > 100 µM (inactive) each time. Further, the GI50 in assay [12], in assay [13], in assay [14], in [15] and in [19] was > 100 µM (inactive) throughout.

In the case of `O=C1Nc2ccc(S(=O)(=O)O)cc2/C1=N/Nc1ccccc1[N+](=O)[O-]`, the GI50 in assay [1] was > 100 µM (inactive); in [16], > 100 µM (inactive); in [2], > 100 µM (inactive); in assay [4], > 100 µM (inactive); in assay [5] it was > 100 µM (inactive); in assay [6] it was 5.64 µM (inactive). The GI50 in assay [7], in assay [8], in [9], in assay [10], in assay [11] and in assay [17] was > 100 µM (inactive) in each case. Moreover, the GI50 was > 100 µM (inactive) in [12]; > 100 µM (inactive) in assay [18]; > 100 µM (inactive) in assay [13]; > 100 µM (inactive) in assay [14]; 35 µM (inactive) in assay [15]; > 100 µM (inactive) in assay [19].

Consider `N#Cc1ncc(C(Cl)Cl)nc1Cl`, for which the GI50 in [1] was 3.24 µM (inactive); in assay [16], 2.04 µM (inactive); in assay [2], 1.4 µM (inactive); in assay [3], 0.491 µM (active); in [4], 8.67 µM (inactive); in assay [5], 3.07 µM (inactive). Further, the GI50 in assay [6] was 1.33 µM (inactive); in assay [7], 1.44 µM (inactive); in [8], 1.94 µM (inactive); in assay [9] it was 1.74 µM (inactive); in assay [11], 2.43 µM (inactive); in assay [17], 1.73 µM (inactive). Besides, the GI50 in assay [12] is 1.89 µM (inactive); in assay [18], 1.91 µM (inactive); in [13] it was 1.81 µM (inactive); in assay [14], 1.94 µM (inactive); in assay [15], 2.17 µM (inactive); in assay [19], 1.78 µM (inactive).
